Data on 20 molecules can be found in patent US7910556B2, “PAR-2 agonist” (Kowa Company, Ltd., priority 2004, dated 2011).

To fix the notation:
T1: human PAR-2 (Protease-activated receptor-2) (human, UniProt P55085 37-397)
T1 sequence (looked up): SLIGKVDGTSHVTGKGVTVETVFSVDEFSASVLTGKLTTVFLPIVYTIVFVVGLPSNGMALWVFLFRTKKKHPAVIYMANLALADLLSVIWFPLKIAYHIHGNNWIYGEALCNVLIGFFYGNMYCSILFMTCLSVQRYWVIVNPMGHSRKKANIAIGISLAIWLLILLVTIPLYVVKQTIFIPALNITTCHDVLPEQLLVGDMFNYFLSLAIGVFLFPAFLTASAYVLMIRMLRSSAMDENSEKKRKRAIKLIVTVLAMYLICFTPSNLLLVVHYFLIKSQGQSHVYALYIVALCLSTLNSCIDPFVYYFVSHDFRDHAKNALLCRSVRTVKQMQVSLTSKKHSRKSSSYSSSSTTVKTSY

T2: PAR-2 (Homo sapiens, UniProt P55085)
T2 sequence (P55085 26-397): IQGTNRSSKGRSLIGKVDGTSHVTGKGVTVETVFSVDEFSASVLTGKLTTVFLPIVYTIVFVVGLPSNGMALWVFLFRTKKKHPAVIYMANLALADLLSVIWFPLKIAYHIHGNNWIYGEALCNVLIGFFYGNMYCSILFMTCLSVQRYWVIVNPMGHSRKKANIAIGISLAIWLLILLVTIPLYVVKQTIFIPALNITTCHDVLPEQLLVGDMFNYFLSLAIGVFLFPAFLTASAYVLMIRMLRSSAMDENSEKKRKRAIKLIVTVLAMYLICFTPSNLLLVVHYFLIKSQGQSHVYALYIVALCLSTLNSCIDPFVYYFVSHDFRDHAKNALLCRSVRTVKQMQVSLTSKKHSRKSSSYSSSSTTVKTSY

Square brackets hold non-standard residues; d marks the D form. Ends that are not written are not given here. Peptide text beside a SMILES is read from it. * marks the point of attachment. Arg(NO2) = N=C(NCCC[C@H](N)C(=O)O)N[N+](=O)[O-]; NHCH2CH2(piperidin-1-yl) = C1CCN(CCN*)CC1; Benzofuran(2-CO) = O=C(c1cc2ccccc2o1)*; Imidazole4carbonyl = O=C(c1cnc[nH]1)*; Isoxazole(3-carbonyl) = O=C(c1ccon1)*; Cha = N[C@@H](CC1CCCCC1)C(=O)O; Nicotinoyl = O=C(c1cccnc1)*; Picolinoyl = O=C(c1ccccn1)*; 2Furoyl = O=C(c1ccco1)*; X1 = Cc1cc(C(=O)*)oc1C; X2 = O=C(c1ccc(Br)o1)*; Bz = O=C(c1ccccc1)*

In one test the target is human PAR-2 (Protease-activated receptor-2) (human) (UniProt P55085). In words: cell-based or functional assay.
Settings: not given
Turning to “5-bromo-2-furoyl-β-cyclohexyl-L-alanyl-glycyl-glycyl-β-cyclohexyl-L-alanine 2-(1-piperidinyl)ethyl amide (peptide)”, the Agonist activity (EC50, µM); intracellular calcium, HCT-15 cells was 0.7 µM.

For “isoxazole-3-carbonyl-β-cyclohexyl-L-alanyl-glycyl-glycyl-β-cyclohexyl-L-alanine 2-(1-piperidinyl)ethyl amide (peptide)”, the Agonist activity (EC50, µM); intracellular calcium, HCT-15 cells was determined as 6.6 µM.

As for “2-furoyl-L-phenylalanyl-glycyl-glycyl-β-cyclohexyl-L-alanine 2-(1-piperidinyl)ethyl amide (peptide)”, the Agonist activity (EC50, µM); intracellular calcium, HCT-15 cells is 2.9 µM.

As for “nicotinoyl-β-cyclohexyl-L-alanyl-glycyl-glycyl-β-cyclohexyl-L-alanine 2-(1-piperidinyl)ethyl amide (peptide)”, the Agonist activity (EC50, µM); intracellular calcium, HCT-15 cells turned out to be 1.6 µM.

“picolinoyl-β-cyclohexyl-L-alanyl-glycyl-glycyl-β-cyclohexyl-L-alanine 2-(1-piperidinyl)ethyl amide (peptide)”: the Agonist activity (EC50, µM); intracellular calcium, HCT-15 cells turned out to be 7.6 µM.

Turning to “2-furoyl-β-cyclohexyl-L-alanyl-glycyl-glycyl-β-cyclohexyl-L-alanine 2-(1-piperidinyl)ethyl amide (peptide)”, the Agonist activity (EC50, µM); intracellular calcium, HCT-15 cells was found to be 16.5 µM.

Regarding “imidazole-4-carbonyl-β-cyclohexyl-L-alanyl-glycyl-glycyl-β-cyclohexyl-L-alanine 2-(1-piperidinyl)ethyl amide (peptide)”, the Agonist activity (EC50, µM); intracellular calcium, HCT-15 cells amounted to 14.9 µM.

In the case of “4,5-dimethyl-2-furoyl-β-cyclohexyl-L-alanyl-glycyl-glycyl-β-cyclohexyl-L-alanine 2-(1-piperidinyl)ethyl amide (peptide)”, the Agonist activity (EC50, µM); intracellular calcium, HCT-15 cells came to 16.5 µM.

Take “benzofuran-2-carbonyl-β-cyclohexyl-L-alanyl-glycyl-glycyl-β-cyclohexyl-L-alanine 2-(1-piperidinyl)ethyl amide (peptide)”: the Agonist activity (EC50, µM); intracellular calcium, HCT-15 cells stood at 0.8 µM.

A further test deals with T1, human PAR-2 (Protease-activated …). In words: cell-based or functional assay.
Settings: not given
SLIGKV-OH [SLIGKV-OH (Ser-Leu-Ile-Gly-Lys-Val-OH)]: the “Agonist activity (EC50, µM); intracellular calcium, HCT-15 cells” value is 15.6 µM.

Another test concerns the target T2, PAR-2.
Assay: not given
The following applies: relative to TRAP (tethered receptor agonist peptide); cited from earlier work.
Take `CC(C)C[C@H](NC(=O)[C@H](CCCNC(=N)N[N+](=O)[O-])NC(=O)c1ccccc1)C(N)=O` [N^60-benzoyl-Arg(NO2)-Leu-NH2] (Bz-[Arg(NO2)]-Leu-NH2): the “PAR-2 activation, action strength relative to TRAP” value is reported as “about one of hundred action strength of TRAP”.

For a further test, the target named is T2, PAR-2. In words: Intracellular calcium dynamics assay (modified Hawthorne et al. method) in HCT-15 cells. In kind it is cell-based. Set-up: endogenous in cells; host or cells: HCT-15 human colorectal adenocarcinoma cells.
Settings: not given
An excerpt:
The PAR-2 activation of peptide derivatives represented by the general formula (1) can be tested by known various methods. For example, PAR-2 activation of peptide derivates can be tested by the methods namely, “Hollenberg method” (Hollenberg, M. D., et al., Can. J. Physiol. Pharmacol., 75, 832-841 (1997)), “Kawabata et al. method” (Kawabata, A., et al., J. Pharmacol. Exp. Ther., 288, 358-370 (1999)), “Howthorne et al. method” (Howthorne et al., A High-Throughput Microtiter Plate-Based Calcium Assay for the Study of Protease-Activated Receptor 2 Activation, Analytical Biochemistry 290, 378-379 (2001)), and the like. The present inventors tested PAR-2 activation potency by the modified “Hawthorne et al. method”. More specifically the method is to assay intracellular calcium dynamic expressing human PAR-2 inherently. In this assay, under probenecid inhibiting anion-exchange transporter the inventors measured intracellular calcium dynamic mediated PAR-2 agonist(concentration variation) by a multiple-well plate reader wherein introducing Ca^2+ sensitive fluorescent dye and stimulating this cell by PAR-2 agonist.
This method is explained below in more detail.
Thereafter, the cells were stimulated with various concentration test compounds and measured at an excitation wavelength of 485 nm and at a measurement wavelength of 525 nm (cut-off 515 nm) with a fluorometer scanning a multiple well (Flex Station, Molecular Devices). As a comparative compound, SLIGKV-OH which is a known PAR-2 activated peptide was used.
A general note: Calcium flux is commonly read through the fluorescence of an indicator in the cells.
In general, EC50 refers to the midpoint of the concentration-response curve. Regarding `O=C(CNC(=O)[C@H](Cc1ccccc1)NC(=O)c1ccco1)NCC(=O)N[C@@H](CC1CCCCC1)C(=O)NCCN1CCCCC1` [Example 2, 2-furoyl-L-phenylalanyl-glycyl-glycyl-β-cyclohexyl-L-alanine 2-(1-piperidinyl)ethyl amide] (2Furoyl-FGG[Cha]-{NHCH2CH2(piperidin-1-yl)}), the EC50 was found to be 2.9 ± 0.6 µM.

Take `O=C(CNC(=O)[C@H](CC1CCCCC1)NC(=O)c1cccnc1)NCC(=O)N[C@@H](CC1CCCCC1)C(=O)NCCN1CCCCC1` [Example 4, nicotinoyl-β-cyclohexyl-L-alanyl-glycyl-glycyl-β-cyclohexyl-L-alanine 2-(1-piperidinyl)ethyl amide] (Nicotinoyl-[Cha]GG[Cha]-{NHCH2CH2(piperidin-1-yl)}): the EC50 was found to be 1.6 ± 0.1 µM.

As to `O=C(CNC(=O)[C@H](CC1CCCCC1)NC(=O)c1cnc[nH]1)NCC(=O)N[C@@H](CC1CCCCC1)C(=O)NCCN1CCCCC1` [Example 9, imidazole-4-carbonyl-β-cyclohexyl-L-alanyl-glycyl-glycyl-β-cyclohexyl-L-alanine 2-(1-piperidinyl)ethyl amide] (Imidazole4carbonyl-[Cha]GG[Cha]-{NHCH2CH2(piperidin-1-yl)}), the concentration giving a half-maximal response (EC50) was 14.9 ± 1.3 µM.

`O=C(CNC(=O)[C@H](CC1CCCCC1)NC(=O)c1ccc(Br)o1)NCC(=O)N[C@@H](CC1CCCCC1)C(=O)NCCN1CCCCC1` [Example 3, 5-bromo-2-furoyl-β-cyclohexyl-L-alanyl-glycyl-glycyl-β-cyclohexyl-L-alanine 2-(1-piperidinyl)ethyl amide] (X2-[Cha]GG[Cha]-{NHCH2CH2(piperidin-1-yl)}): the EC50 came to 0.7 ± 0.2 µM.

`O=C(CNC(=O)[C@H](CC1CCCCC1)NC(=O)c1ccccn1)NCC(=O)N[C@@H](CC1CCCCC1)C(=O)NCCN1CCCCC1` [Example 7, picolinoyl-β-cyclohexyl-L-alanyl-glycyl-glycyl-β-cyclohexyl-L-alanine 2-(1-piperidinyl)ethyl amide] (Picolinoyl-[Cha]GG[Cha]-{NHCH2CH2(piperidin-1-yl)}): the 50% effective concentration (EC50) was 7.6 ± 2.6 µM.

As for `O=C(CNC(=O)[C@H](CC1CCCCC1)NC(=O)c1cc2ccccc2o1)NCC(=O)N[C@@H](CC1CCCCC1)C(=O)NCCN1CCCCC1` [Example 5, benzofuran-2-carbonyl-β-cyclohexyl-L-alanyl-glycyl-glycyl-β-cyclohexyl-L-alanine 2-(1-piperidinyl)ethyl amide] ({Benzofuran(2-CO)}-[Cha]GG[Cha]-{NHCH2CH2(piperidin-1-yl)}), the 50% effective concentration (EC50) was found to be 0.8 ± 0.2 µM.

On to `O=C(CNC(=O)[C@H](CC1CCCCC1)NC(=O)c1ccon1)NCC(=O)N[C@@H](CC1CCCCC1)C(=O)NCCN1CCCCC1` [Example 6, isoxazole-3-carbonyl-β-cyclohexyl-L-alanyl-glycyl-glycyl-β-cyclohexyl-L-alanine 2-(1-piperidinyl)ethyl amide] ({Isoxazole(3-carbonyl)}-[Cha]GG[Cha]-{NHCH2CH2(piperidin-1-yl)}), for which the EC50 was determined as 6.6 ± 3.1 µM.

As to `O=C(CNC(=O)[C@H](CC1CCCCC1)NC(=O)c1ccco1)NCC(=O)N[C@@H](CC1CCCCC1)C(=O)NCCN1CCCCC1` [Example 1, 2-furoyl-β-cyclohexyl-L-alanyl-glycyl-glycyl-β-cyclohexyl-L-alanyine 2-(1-piperidinyl)ethyl amide] (2Furoyl-[Cha]GG[Cha]-{NHCH2CH2(piperidin-1-yl)}), the EC50 is 16.5 ± 3.4 µM.

Still in this test, the particulars now being: HCT-15 cells, calcium assay; statement in words.
With `Cc1cc(C(=O)N[C@@H](CC2CCCCC2)C(=O)NCC(=O)NCC(=O)N[C@@H](CC2CCCCC2)C(=O)NCCN2CCCCC2)oc1C` [Example 8, 4,5-dimethyl-2-furoyl-β-cyclohexyl-L-alanyl-glycyl-glycyl-β-cyclohexyl-L-alanine 2-(1-piperidinyl)ethyl amide] (X1-[Cha]GG[Cha]-{NHCH2CH2(piperidin-1-yl)}), the “agonist activation compared with the comparative peptide SLIGKV-OH” value is on record as “almost same as the comparative peptide”.

On to `O=C(CNC(=O)[C@H](CC1CCCCC1)NC(=O)c1cnc[nH]1)NCC(=O)N[C@@H](CC1CCCCC1)C(=O)NCCN1CCCCC1` [Example 9, imidazole-4-carbonyl-β-cyclohexyl-L-alanyl-glycyl-glycyl-β-cyclohexyl-L-alanine 2-(1-piperidinyl)ethyl amide] (Imidazole4carbonyl-[Cha]GG[Cha]-{NHCH2CH2(piperidin-1-yl)}), for which the “agonist activation compared with the comparative peptide SLIGKV-OH” value is “almost same as the comparative peptide”.

Consider `O=C(CNC(=O)[C@H](CC1CCCCC1)NC(=O)c1ccco1)NCC(=O)N[C@@H](CC1CCCCC1)C(=O)NCCN1CCCCC1` [Example 1, 2-furoyl-β-cyclohexyl-L-alanyl-glycyl-glycyl-β-cyclohexyl-L-alanyine 2-(1-piperidinyl)ethyl amide] (2Furoyl-[Cha]GG[Cha]-{NHCH2CH2(piperidin-1-yl)}), for which the “agonist activation compared with the comparative peptide SLIGKV-OH” value is recorded as “almost same as the comparative peptide”.

Still in this test, the particulars now being: HCT-15 human colorectal adenocarcinoma cells expressing PAR-2 inherently; Ca2+ sensitive fluorescent dye, 2.5 mM probenecid; read-out: Agonist activity (EC50).
As for `Cc1cc(C(=O)N[C@@H](CC2CCCCC2)C(=O)NCC(=O)NCC(=O)N[C@@H](CC2CCCCC2)C(=O)NCCN2CCCCC2)oc1C` [Example 8, 4,5-dimethyl-2-furoyl-β-cyclohexyl-L-alanyl-glycyl-glycyl-β-cyclohexyl-L-alanine 2-(1-piperidinyl)ethyl amide] (X1-[Cha]GG[Cha]-{NHCH2CH2(piperidin-1-yl)}), the EC50 is 16.5 ± 2.1 µM.
